These results are taken from article PMC3534098 (PLoS ONE, 2012).

For data set [1], the system named is M. tuberculosis H37Rv. Briefly: microbe, parasite or virus in culture. It is filed as cell-based. As to conditions: Mycobacterium tuberculosis, read-out: MIC H37Rv.
The test system of the next data set is M. tuberculosis inh233. Nature of the data set: microbe, parasite or virus in culture. The data set is classed as cell-based. Particulars: Mycobacterium tuberculosis, INH233, read-out: MIC inh233.
Data set [2] deals with L1210, HepG2, NEURO 2A, MDCK and H9C2(2-1).
Another data set concerns M. tuberculosis CDC1551. Nature of the data set: microbe, parasite or virus in culture. It is filed as cell-based. As to conditions: Mycobacterium tuberculosis, CDC1551, read-out: MIC CDC1551.
Data set [3] can be described thus: in vitro. Particulars: mouse, microsomes, pH 7.4.
Experiment in data set [4]: not given
The source holds these as a separate data set.

The test system of a further data set is M. tuberculosis Beijing. Briefly: microbe, parasite or virus in culture. The data set is classed as cell-based. Particulars: Mycobacterium tuberculosis, read-out: MIC Beijing.
Data set [5] concerns M. bovis BCG strain Pasteur. Briefly: microbe, parasite or virus in culture. The data set is classed as cell-based. Particulars: Mycobacterium tuberculosis variant bovis BCG, read-out: MIC M. bovis BCG.
The subject of data set [6] is Enterococcus faecium, Enterococcus faecalis, Haemophilus influenzae, Moraxella catarrhalis, Streptococcus pneumoniae, Escherichia coli and Streptococcus …. It is filed as cell-based, Gram-positive and Gram-negative organisms.
Data set [7] is described as follows: in vitro. Particulars: human, microsomes, pH 7.4.
The test system of data set [8] is M. tuberculosis H37Rv. Briefly: Dose response efficacy in acute murine model of TB infection. The data set is classed as in vivo, B6 mice. How it is done: (§1) For pharmacokinetic studies C57BL/6 female mice of 18–20 g weight were used. Experimental compounds were administered through oral gavage at 50 mg/kg dose at a concentration of 20 ml/kg. All mice received treatment in the fed state. Peripheral total blood was the compartment chosen for the establishment of compound concentrations. Drugs were administered as 1% methyl cellulose suspensions and the blood sampling scheme was: 15, 30 and 45 minutes, 1, 1.5, 2, 3, 4, 8 and 24 hours. At each time-point, blood from 4 different animals was obtained. LC-MS was used as the analytical method of choice for the establishment of compound concentration in blood with a sensitivity of LLQ = 1–5 ng/ml in […]. The non-compartmental data analysis was performed with WinNonlin 5.0 and supplementary analysis was performed with GraphPad 4 software. Dose-response studies in an acute murine infection TB model were carried out as previously described.
Figure 3 Therapeutic efficacy of anti-tubercular IP 3 against M. tuberculosis H37Rv in vivo. B6 mice were infected by intra-tracheal instillation with 10^5 cfu M. tuberculosis H37Rv per mouse. The mice were treated with the anti-tubercular orally once a day from day 1 to day 8. Efficacy results are expressed as log cfu reduction in the lungs of infected mice and are the mean±SD of five mice. The shaded line indicates the levels of administered mycobacterial inoculum.

A short description of data set [9]: Whole blood pharmacokinetics after oral administration in mice. The data set is classed as in vivo, C57BL/6 female mice. Particulars: female, mouse, oral 50 mg/kg suspension in 1% aqueous methylcellulose. The protocol: as §1
Figure 2 Whole blood pharmacokinetic profile and main parameters of IP 3 after oral administration of a 50 mg/kg suspension in 1% aqueous methylcellulose.

A further data set has as its target cytochrome bc 1 complex. Also noted: method as in PMID 6327677. Particulars: high affinity binding site Qo; cited from earlier work.

≈ marks a conversion by molar mass, not a printed value. Where two headings read alike, the source gives them in different places.

With `Cc1ccc2nc(C)c(C(=O)NCc3cccs3)n2c1` [IP 1], the MIC amounted to 0.2 µM (≈ 0.0571 µg/mL) in the data set on M. tuberculosis H37Rv [1]; 0.03 µM (≈ 0.00856 µg/mL) with M. tuberculosis inh233; 0.06 µM (≈ 0.0171 µg/mL) with M. tuberculosis CDC1551; 0.03 µM (≈ 0.00856 µg/mL) in the data set with M. tuberculosis Beijing; 1 µM (≈ 0.285 µg/mL) in data set [5]. Further, the “Human CLint” value (human liver microsomes) is 3.9 ml/min/gprotein. Besides, the “Tox50 Cell lines” value in data set [2] is reported as “all>25 µM”. Moreover, the half-life (commonly the time in which the quantity being followed falls by half) at 0.5 mM in “in vitro [3]” is less than 3 min. Also, the “Mouse CLint” value in data set [4] (mouse liver microsomes) was greater than 30 ml/min/gprotein. Also, the “MIC Anti-bacterial panel” value in data set [6] is listed as “all>64 µM”.

For `Cc1ccc2nc(C(F)(F)F)c(C(=O)NCc3cccc(Cl)c3)n2c1` [IP 2], the MIC worked out at 0.2 µM (≈ 0.0736 µg/mL) with M. tuberculosis H37Rv [1], 0.03 µM (≈ 0.011 µg/mL) in the data set on M. tuberculosis inh233, 0.06 µM (≈ 0.0221 µg/mL) with M. tuberculosis CDC1551 and 0.06 µM (≈ 0.0221 µg/mL) with M. tuberculosis Beijing. The “Human CLint” value (human liver microsomes) is given as greater than 30 ml/min/gprotein. For the same compound, the “Tox50 Cell lines” value in [2] was “all>50 µM”. Also, the half-life at 0.5 mM in “in vitro [3]” and in “in vitro [7]” was less than 3 min each time. In addition, the “Mouse CLint” value in data set [4] (mouse liver microsomes) is on record as greater than 30 ml/min/gprotein. In addition, the “MIC Anti-bacterial panel” value in data set [6] was “all>16 µM”.

For `Cc1ccc2nc(C)c(C(=O)NCc3ccc(C(F)(F)F)cc3)n2c1` [IP 3, 2,6-Dimethyl-N-(4-(trifluoromethyl)benzyl)imidazo[1,2-a]pyridine-3-carboxamide], the MIC with M. tuberculosis H37Rv [1] amounted to 0.03 µM (≈ 0.0104 µg/mL); in [5], 0.5 µM (≈ 0.174 µg/mL). Besides, the “Human CLint” value (human, microsomes) turned out to be 4.9 ml/min/gprotein. For the same compound, in data set [2], the “Tox50 Cell lines” value is on record as “all>25 µM”. For the same compound, the results for the half-life in the data set “in vitro [3]” and in “in vitro [7]” were 11.6 min and 15.8 min, respectively. The “Mouse CLint” value in [4] (mouse, microsomes) is 7 ml/min/gprotein. The “log cfu reduction with respect to non-treated controls” value came to 2 log cfu in the data set on M. tuberculosis H37Rv [8] (300 mg/kg orally once a day from day 1 to day 8, lungs of infected mice) and 2 log cfu in the data set on M. tuberculosis H37Rv [8] (500 mg/kg orally once a day from day 1 to day 8, lungs of infected mice). Also, the behavior in vivo result in the data set on M. tuberculosis H37Rv [8] (acute murine model of TB infection) is reported as “bacteriostatic”. For the same compound, in the data set with M. tuberculosis H37Rv [8] (any of the administered doses, mice), the signs of toxicity result is given as “No signs of toxicity”. Moreover, the “MIC Anti-bacterial panel” value in data set [6] is “all>16 µM”. Also, the bioavailability (usually dose-corrected exposure relative to a reference, in per cent) in [9] (C57BL/6, whole blood, read-out: F (percentage bioavailability)) worked out at 61%. Also, the AUC (in general, concentration integrated over time) in data set [9] (C57BL/6, whole blood, read-out: AUC (Area Under the Curve) (0–8 hours)) was 4360 ng·h/mL. Moreover, the Cmax in data set [9] (C57BL/6, whole blood, read-out: Cmax (maximum concentration observed in whole blood)) amounted to 3400 ng/mL.

On to `Cc1ccc2nc(C)c(C(=O)NCc3ccc(Cl)nc3)n2c1` [IP 4, N-((6-Chloropyridin-3-yl)methyl)-2,6-dimethylimidazo[1,2-a]pyridine-3-carboxamide], for which the MIC (in the data set with M. tuberculosis H37Rv [1]; in data set [5]) was 5 µM (≈ 1.57 µg/mL) throughout. For the same compound, the “Human CLint” value (human, microsomes) came out at 2.3 ml/min/gprotein. Also, in data set [2], the “Tox50 Cell lines” value is on record as “all>50 µM”. The half-life in “in vitro [3]” was 11.4 min; in “in vitro [7]”, greater than 30 min. Further, the “Mouse CLint” value in [4] (mouse, microsomes) is reported as 7.4 ml/min/gprotein. Also, the “MIC Anti-bacterial panel” value in data set [6] was “all>16 µM”.

In the case of `CO/C(=C/C(N)=O)[C@H](C)[C@H](/C=C/c1csc(-c2csc([C@@H](C)/C=C/C=C/C(C)C)n2)n1)OC` [Myxothiazol, myxothiazol], the Kd (as a rule, the constant that tells how readily two partners part at equilibrium) at cytochrome bc 1 complex is less than 1 nM.
